Results published in patent US8193168B2, “Use of a TRPM5 inhibitor to regulate insulin and GLP-1 release” (Redpoint Bio Corporation, priority 2007, dated 2012).

Key:
[1] = system: Beta-TC-6 cells; test: Insulin release enhancement in Beta-TC-6 cells (insulin ELISA); type: cell-based, mouse; details: for Percent Enhancement of Insulin Secretion (10 μM): compound at 10 μM; for glucose dependence of stimulation of insulin release: varying glucose concentration, FIG. 3 and FIG. 7
Description: Beta-TC-6 cells are an insulin-secreting cell line derived from transgenic mice expressing the large T-antigen of simian virus 40 (SV40) in pancreatic beta-cells as described by Poitout et al., Diabetes, 44:306-313 (1995). The cell line was obtained from ATCC cell bank CAT# CRL-11506 and grown in Dulbecco's Modified Eagle's Medium (DMEM) with 15% fetal bovine serum (FBS), 4 mM glutamine, 4.5 mM glucose 1500 mg/L sodium bicarbonate and 1× penn/strep antibiotic mix in a 37° C. incubator with 5% CO2. Cultures were routinely split 1:2 twice a week with the aid of trypsin.
On the day before the assay 0.1×10^6 Beta-TC-6 cells were plated into each well of 96 well plates, and the cells cultured overnight in growth media.
On the next day, growth media was removed from the plate and the monolayers rinsed with phosphate buffered saline (PBS) and pre-incubated 30 mins at 37° C. in Krebs-Ringer Bicarbonate Buffer (KRBB) consisting of 118.5 mM NaCl, 2.54 mM CaCl2, 1.19 mM KH2PO4, 4.74 mM KCl, 25 mM NaHCO3, 1.19 mM MgSO4, 10 mM HEPES buffer and 0.1% bovine serum albumin at pH 7.4. This buffer was removed and replaced with 100 μL of the same buffer containing various insulin release modulators: including various concentrations of glucose up to 12 mM and compounds up to 100 μM. Compounds stock solutions, e.g. 10-20 mM, were diluted in DMSO. Final DMSO concentrations in incubation buffer were 0.5% or less. Vehicle controls were included. Static incubations were then performed for 2 h at 37° C. The entire incubation volume was collected after the 2 h incubation for insulin assay.
ELISA Protocol for insulin determinations. The following protocol was used for doing ELISA using the Rat/Mouse Insulin ELISA Kit from Linco Research, Inc., CAT#EZRMI-13K and Amplex® Red Hydrogen Peroxide/Peroxidase Assay Kit, CAT#A22188, and Amplex® Red reagent (10-acetyl-3,7-dihydroxyphenoxazine) CAT#A12222.
All reagents were Pre-warmed to room temperature before setting up experiment.
1. Dilute the 10× washing buffer into 1× washing buffer. 50 mL+450 mL de-ionized water. Do 1:10 dilution to the cell culture supernatant (Beta-TC-6 cell incubation).
2. Use one column (8 wells) wells for standard samples and QC1 and QC2, typically 0 and 5 ng/mL of insulin. On some plates full standard curves for insulin obtained as shown below.
3. Cover the unused wells well. Wash each well 3 times with 300 μL of 1× washing buffer each time. (2 minutes each washing step on the shaker.) Decant Wash Buffer and remove the residual amount from all wells by inverting the plate and tapping it smartly onto absorbent towels several times.
4. Add 20 μL Assay Buffer into that blank well and 10 μL into those wells for standards and samples.
5. Add 10 μL rat insulin standards and samples to the appropriate wells.
6. Add 80 μL Detection Antibody to all wells. Cover the plate and incubate at room temperature for 2 hours.
7. Tear off the plate cover and decant solutions from the plate. Tap to remove residual solutions in well.
8. Wash well 3 times with diluted wash buffer 300 μL per well per wash (2 minutes each washing step on the shaker). Tap to remove residual solutions as before.
9. Add 100 μL Enzyme Solution to each well. Cover plate with sealer and incubate with moderate shaking at room temperature for 30 min on the microtiter plate shaker.
10. Remove sealer, decant solutions from the plate and tap plate to remove the residual fluid.
11. Wash wells 6 times with diluted Wash Buffer, 300 μL per well per wash. Decant and tap after each wash to remove residual buffer.
12. Prepare 5 mL working solution of […] Amolex Red reagent containing 2.0 mM H2O2. 4.45 mL of 1× Reaction buffer+50 μL 10 mM Amplex Reagent+500 μL 20 mM H2O2.
13. Add 100 μL of the Amplex Red reagent/H2O2 to each well.
14. Incubate the reactions. Incubate at room temperature for 30 minutes, protected from light (using foil to wrap the plate). […]

[2] = target: T1, TRPM5 (Homo sapiens, UniProt Q9NZQ8); test: TRPM5 inhibition (FLIPR Membrane Potential Assay); type: cell-based
T1 sequence (Q9NZQ8 1-1165): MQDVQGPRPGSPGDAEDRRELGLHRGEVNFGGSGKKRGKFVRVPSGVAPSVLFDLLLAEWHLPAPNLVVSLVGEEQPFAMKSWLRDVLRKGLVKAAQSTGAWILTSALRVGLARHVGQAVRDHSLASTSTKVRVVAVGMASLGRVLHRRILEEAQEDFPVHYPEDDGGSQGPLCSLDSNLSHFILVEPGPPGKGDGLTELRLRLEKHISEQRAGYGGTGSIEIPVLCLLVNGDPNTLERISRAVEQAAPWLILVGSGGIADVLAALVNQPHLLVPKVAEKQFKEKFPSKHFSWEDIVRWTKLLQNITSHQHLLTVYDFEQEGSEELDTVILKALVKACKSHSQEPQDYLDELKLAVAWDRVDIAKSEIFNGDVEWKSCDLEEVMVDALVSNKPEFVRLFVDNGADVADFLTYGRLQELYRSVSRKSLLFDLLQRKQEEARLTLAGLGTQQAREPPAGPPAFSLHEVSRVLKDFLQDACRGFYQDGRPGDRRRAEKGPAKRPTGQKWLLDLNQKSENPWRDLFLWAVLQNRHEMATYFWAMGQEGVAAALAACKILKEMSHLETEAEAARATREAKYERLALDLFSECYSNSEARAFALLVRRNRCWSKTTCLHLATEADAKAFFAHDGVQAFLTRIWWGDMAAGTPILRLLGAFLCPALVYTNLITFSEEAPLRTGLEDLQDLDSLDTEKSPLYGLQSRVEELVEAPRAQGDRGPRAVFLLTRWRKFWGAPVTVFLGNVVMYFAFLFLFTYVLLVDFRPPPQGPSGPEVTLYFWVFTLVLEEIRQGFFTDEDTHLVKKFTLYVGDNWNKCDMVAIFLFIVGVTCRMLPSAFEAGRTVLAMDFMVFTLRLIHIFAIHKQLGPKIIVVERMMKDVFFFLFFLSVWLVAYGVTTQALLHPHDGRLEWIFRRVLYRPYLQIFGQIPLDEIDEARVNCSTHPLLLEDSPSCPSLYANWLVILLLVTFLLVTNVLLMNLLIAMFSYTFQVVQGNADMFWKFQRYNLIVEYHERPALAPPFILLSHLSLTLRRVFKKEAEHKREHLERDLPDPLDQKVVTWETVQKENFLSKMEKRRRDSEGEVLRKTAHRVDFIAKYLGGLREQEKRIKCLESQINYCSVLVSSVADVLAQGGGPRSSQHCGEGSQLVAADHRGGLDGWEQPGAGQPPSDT

[3] = system: calcium-activated current in Beta TC6 cells; test: Whole-cell electrophysiology of calcium-activated current in Beta TC6 cells; type: cell-based, mouse; details: pulsed doses, current versus time, FIG. 13
Description: Whole-cell recordings of TRP channel currents were obtained from acutely trypsinized beta TC-6 cells and TRPM5-expressing HEK cells. The bath solution was Hank's Balanced Salt Solution, composed of (mM); 1.2 CaCl2, 0.5 MgCl2-6H2O, 0.4 MgSO4.7H2O, 5.3 KCl, 0.4 KH2PO4, 137.9 NaCl, 0.3 Na2HPO4.7H2O, and 5.5 D-Glucose, with 20 mM HEPES (Invitrogen), pH 7.4 (NaOH). The internal pipette solution contained, in mM: 135 glutamic acid, 8 NaCl, 9 CaCl2, 10 HEPES and 10 EGTA, pH 7.2 (CsOH) (Sigma). Calculated concentration of free calcium in internal solution was 1.5 μM (http://www.stanford.edu/˜cpatton/webmaxc/webmaxcS.htm). Recording pipettes were pulled using a Flaming/Brown Micropipette Puller (Sutter Instruments), from fire-polished borosilicate glass, to approximately 2 MΩ.
Voltage clamp recordings were obtained in whole cell mode using MultiClamp 700B amplifier and Digidata 1322A converter running on Clampex 9.2 software (Axon Instruments). Recordings were performed at room temperature. The recording protocol consisted of a ramp from −80 mV potential to +80 mV, followed by a step to −80 mV. Peak current was measured at three different voltages: −80 mV, after ramping to +80 mV, then following a return to −80 mV. Series resistance was automatically compensated immediately after the break-in, and the resulting capacitance measurements were used for current density calculations. […]

[4] = compared to glucose-dependent insulin production

COc1ccc(/C=N/NC(=O)CSc2cc(C)c3cccc(C)c3n2)cc1OC [Example 24, (4,8-Dimethylquinolin-2-ylsulfanyl)acetic acid (3,4-dimethoxybenzylidene)hydrazide]
Percent Enhancement of Insulin Secretion (10 μM) [1, 4]: 207%
IC50 [2]: 400 nM

CCCCNC(=O)NS(=O)(=O)c1ccc(C)cc1 [Tolbutamide, tolbutamide, reference compound]
Percent Enhancement of Insulin Secretion ([1]; tolbutamide tested at 30 μM, compared to glucose-dependent insulin production): 228%
glucose dependence of stimulation of insulin release [1]: not sensitive to glucose levels

COc1ccc(/C=N/NC(=O)COc2cccc(C)c2)cc1OC [Example 8, (E)-N′-(3,4-Dimethoxybenzylidene)-2-(m-tolyloxy)acetohydrazide]
Percent Enhancement of Insulin Secretion (10 μM) [1, 4]: 39%
IC50 [2]: 3000 nM

COc1ccc(/C=N/NC(=O)C2CC2c2ccccc2)cc1OC (centres unmarked) [Example 4, (E)-N′-(3,4-Dimethoxybenzylidene)-2-phenylcyclopropanecarbohydrazide]
effect on insulin secretion in combination with tolbutamide ([1]; FIG. 6): additive effects
Percent Enhancement of Insulin Secretion (10 μM) [1, 4]: 111%
glucose dependence of stimulation of insulin release [1]: increases insulin secretion in a glucose-dependent manner
IC50 [2]: 600 nM
inhibition of calcium-activated current [3]: inhibition of the current
